“Also recorded” adds a separate entry of the source.
Experiments:
FOCUS = assay: cell viability; format: cell-based, human; conditions: 5 μM
Experimental: (§1) A MTT assay was performed to evaluate the effect of MO-1-1100 on cell proliferation and viability. MTT is reduced to purple formazan in living cells. FOCUS cells were used as a high ASPH expressing human HCC cell line. […] The MTT assay measures cellular metabolic activity via NAD(P)H-dependent cellular oxidoreductase enzymes. […] In order to evaluate the effect of long-term exposure of MO-1-1100, the colony formation assay (an assay of malignant potential and phenotype) in which cells were treated with inhibitor for 3 weeks was performed.

ASPH = molecular target: T1, ASPH (Homo sapiens, UniProt Q12797); assay: high throughput 14CO2 capture enzymatic assay for ASPH β-hydroxylase activity (ASPH mAb capture from lysates of treated FOCUS cells); format: biochemical; design: endogenous in cells; host or cells: FOCUS cells (human hepatocellular carcinoma line)
T1 sequence (Q12797 1-758): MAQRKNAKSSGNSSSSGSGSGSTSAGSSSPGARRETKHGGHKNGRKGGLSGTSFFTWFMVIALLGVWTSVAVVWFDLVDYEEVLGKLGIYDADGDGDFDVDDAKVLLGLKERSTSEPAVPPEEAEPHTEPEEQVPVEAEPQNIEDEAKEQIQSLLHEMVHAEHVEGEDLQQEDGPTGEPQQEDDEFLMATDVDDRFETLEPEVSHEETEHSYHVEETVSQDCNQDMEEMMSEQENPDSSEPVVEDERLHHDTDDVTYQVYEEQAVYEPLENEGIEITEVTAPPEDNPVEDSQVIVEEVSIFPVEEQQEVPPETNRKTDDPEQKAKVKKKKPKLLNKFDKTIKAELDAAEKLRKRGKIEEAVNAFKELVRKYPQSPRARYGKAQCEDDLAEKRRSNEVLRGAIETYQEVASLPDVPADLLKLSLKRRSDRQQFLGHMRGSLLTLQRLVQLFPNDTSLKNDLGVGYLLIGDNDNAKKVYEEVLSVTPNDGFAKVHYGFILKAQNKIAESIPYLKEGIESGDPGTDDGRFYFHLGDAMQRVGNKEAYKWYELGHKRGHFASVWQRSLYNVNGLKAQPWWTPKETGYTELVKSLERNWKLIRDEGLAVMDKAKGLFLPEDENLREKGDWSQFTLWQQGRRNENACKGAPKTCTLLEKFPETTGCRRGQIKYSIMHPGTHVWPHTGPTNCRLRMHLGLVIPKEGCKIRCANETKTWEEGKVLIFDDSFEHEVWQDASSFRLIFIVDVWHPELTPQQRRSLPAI
Experimental: In yet another aspect, the disclosure provides a method determining ASPH activity by contacting an EGF-like domain peptide with a detectably-labeled α-ketoglutarate and ASPH enzyme and measuring β-hydroxylase activity. In one embodiment, said α-ketoglutarate is ^14C-labelled, and wherein β-hydroxylase activity is measured by detecting liberated ^14CO2. In one embodiment, said liberated ^14CO2 is captured on a filter and radioactivity quantified. […] In one embodiment, said EGF-like domain comprises the amino acid sequence of […] (SEQ ID NO:1). In one embodiment, said EGF-like domain peptide comprises the consensus sequence of CDXXXCXXKXGNGXCDXXCNNAACXXDGXDC (SEQ ID NO: 2).
FIG. 3A is a diagram of the biochemical reaction catalyzed by ASPH derived from PC cell lysates. FIG. 3B is a cartoon illustrating the read-out to quantify ASPH activity in PC cells and tumors. FIG. 3C is an image of membrane was obtained by a phosphor-imager after a 16 hour exposure of the trapping filter to a phospho-screen. FIG. 3D is a bar graph showing intensities were calculated by Image J software and compared to a DMSO control. Vertical bars represent standard deviation. These figures show methods of measurement and data relating to ASPH catalytic activity.
EGF and EGF-like domains are well known in the art and generally include six cysteine residues which have been shown (in EGF) to be involved in disulfide bonds. The main structure is a two-stranded beta-sheet followed by a loop to a C-terminal short two-stranded sheet. Subdomains between the conserved cysteines vary in length. Examples include those described in Davis, C G, 1990, New Biol. 2(5):410-9; Blomquist et al., 1984, Proc Natl Acad Sci USA. 81(23):7363-7; Hommel et al., […], J Mol Biol. 227(1):271-82; Doolittle et al., 1984, Nature. 307(5951):558-60; Appella et al., 1988, FEBS Lett. 231(1):1-4; Sorkin A., 2001, Biochem Soc Trans. August; 29(Pt 4):480-4; each of which is hereby incorporated by reference). FIGS. 3A-C represents the strategy for development and characterization of the performance of an assay to measure ASPH enzymatic activity. FIG. 3A describes the biochemical reaction catalyzed by ASPH. FIG. 3B depicts the read-out of the assay. Protein lysates were extracted from FOCUS cells (high level of ASPH cell surface expression) treated with 1-10 μM of each parent compound for 24 hours. The lysates were added into 96 well-plates coated with ASPH monoclonal antibodies (mAbs) to add an antigen specific (ASPH) capture step to the assay design. After incubation and washing, only ASPH is captured on each well. The reaction is carried out with 60 μM of an EGF domain containing 39AA peptide, 100 μM FeCl2 and 40 μM ^14C labeled α-ketoglutarate were added into each well. The ^14CO2 was captured on a glass fiber membrane soaked in Ca(OH)2. […] The compound was further characterized for clinical use as an anti-tumor agent for PC and HCC and other ASPH-expressing tumors.

FOCUS cells = assay: anchorage independent growth in soft agar; format: cell-based, human; conditions: 3 weeks of culture
Experimental: The effect of MO-1-1100 on anchorage independent growth in soft agar was evaluated. The ability of forming colonosphere in soft agar is considered to be a rigid test for tumorigenic potential. ASPH expression results in cells acquiring the ability to form colonospheres in soft agar. […] In order to evaluate the effect of ASPH inhibitor for anchorage independent colony formation, FOCUS cells were incubated in soft agar with or without this ASPH enzymatic inhibitor. After 3 weeks incubation, MO-1-1100 reduced colonosphere formation of FOCUS cells (FIG. 9A). […] This assay is a standard method to monitor malignant growth that reflects the ability to form tumors that grow aggressively in vivo.

Hep3B = assay: cell viability; format: cell-based, human; conditions: 5 μM
HepG2 = assay: cell viability; format: cell-based, human; conditions: 5 μM
FOCUS HCC cells = assay: colony formation assay; format: cell-based, human; conditions: 5 μM
Experimental: as §1

NC1=C(OS(=O)(=O)Cc2ccccc2)C(=O)C(c2ccc(Cl)cc2)O1 (racemic) [MO-1-1100]
cell viability, inhibition rate (FOCUS): 37.9% | identified as hits (screening for inhibition of β-hydroxylase activity) (ASPH): identified as hits | β-hydroxylase activity (ASPH; 1 μM): substantially inhibits | ASPH enzymatic inhibitory activity (β-hydroxylase) (ASPH; concentration not given): inhibit | number and size of colonies in soft agar (FOCUS cells): dose-dependent and highly significant reduction; also recorded: reduces | cell viability, inhibition rate (Hep3B): 60% | cell viability, inhibition rate (HepG2): 59% | colony formation (FOCUS HCC cells): reduced colony formation; also recorded: strikingly inhibited | colony formation, inhibition rate (FOCUS HCC cells; 3 weeks): 36.8%

Reference: US10106532B2, “Inhibitors of beta-hydroxylase for treatment of cancer” (MIDWESTERN UNIVERSITY, priority 2012, dated 2018)
